{
  "source": "patent US20230144898A1",
  "about": "“INHIBITOR OF ASPARTIC ACID SYNTHESIS IN TUMOR CELLS, INHIBITOR OF SPHEROID FORMATION OF TUMOR CELLS, INHIBITOR OF TUMOR CELL METASTASIS, ACTIVITY ENHANCER OF GLYCOLYTIC INHIBITOR, AND PHARMACEUTICAL COMPOSITION FOR SUPPRESSING AND/OR PREVENTING TUMOR METASTASIS” (CCI HOLDINGS INC., priority 2020, published 2023)",
  "key": {"B16F10 cells [1]": {"test_system": "B16F10 cells", "experiment": "Spheroid formation assay (Test Example 4)", "type": "cell-based, mouse", "details": "0.3 µM or 3 µM; 24, 48 and 72 hours", "protocol": "Specifically, B16F10 cells were seeded in an amount of 0.3×10^5 cells/mL in a 96-well plate for spheroid formation in an amount of 100 µL each. Thereupon, neopetasin at a concentration of 0.3 µM or 3 µM was added to the medium. Cells were photographed using a phase-contrast microscope after 24 hours, 48 hours and 72 hours of adding neopetasin. Moreover, as a negative control section, DMSO was administered to perform the same experiment."}, "A2058 cells": {"test_system": "A2058 cells", "experiment": "KEGG Pathway analysis using microarray (Test Example 6)", "type": "cell-based, human", "details": "3 µM, 8 hours", "protocol": "The signaling pathways affected by neopetasin treatment were examined by KEGG Pathway analysis using the microarray. Specifically, A2058 cells were seeded at 0.5×10^5 cells/mL in a six-well plate, and after 24 hours of seeding, neopetasin (final concentration: 3 µM) was suspended in a medium and incubated for 8 hours. A2058 cells thus treated with neopetasin (3 µM) for 8 hours were recovered with a cell scraper. Furthermore, DMSO was administered to the negative control section, and the same experiment was performed. Next, data was collected using SurePrint G3 Human CGH microarray 8x60K (Agilent, CA, USA) and the raw data obtained for each sample was normalized with 75 percentile values (global normalization). Then, using Gene Set Enrichment Analysis (GSEA, Broad Laboratory, Massachusetts Institute of Technology, MA, USA), pathways registered in KEGG, Reactome, and GO were searched.\nIn FIG. 7, the genes with increased expression are shown in red, the gene groups with decreased expression are shown in blue, and the gene groups with changes therebetween are shown in white. […] In addition, when the heat map was drawn, gene groups included in the variable pathways were extracted, and the log-transformed signal data was subjected to cluster analysis by Ward’s method using JMP version 12.2.0 (SAS Institute Inc.)."}, "B16F10 cells [2]": {"test_system": "B16F10 cells", "experiment": "Metabolomic analysis (amino acids) by CE-TOFMS (Test Example 7)", "type": "cell-based, mouse", "protocol": "The metabolomic analysis (amino acids) of neopetasin-treated B16F10 cells was performed. Specifically, for B16F10 cells treated with neopetasin (3 µM) through the same method as in Test Example 1, the cells were recovered at each time point of 9 hours and 48 hours after the treatment, and amino acid concentration was measured using a capillary electrophoresis-time of flight mass spectrometer (CE-TOFMS). Furthermore, the amino acid concentration in the sample was measured according to an internal standard calibration method, and the internal standard concentration in the sample was calculated as 25 µM. Moreover, for the analysis, Master Hands ver. 2.17.3.18 (Institute for Advanced Biosciences, Keio University) was used."}, "[3]": {"test_system": "KMeC cells (canine malignant melanoma cells)", "experiment": "Western blotting of cancer-related proteins, KMeC cells (Test Example 10)", "type": "cell-based", "details": "3 µM, 56 hours", "protocol": "KMeC cells (canine malignant melanoma cells) were obtained from the Veterinary Surgery Laboratory, Graduate School of Agricultural and Life Sciences, the University of Tokyo. KMeC cells were cultured in an incubator (air/CO2 = 95/5 (v/v)) at 37° C. using RPMI1640 medium.\nTo start with, each cell was seeded at 0.5×10^5 cells/mL in a six-well plate, and after 24 hours of seeding, neopetasin (final concentration: 3 µM) was suspended in a medium and incubated for 56 hours. […] thus treated with neopetasin (3 µM) for 56 hours were recovered with a cell scraper. Furthermore, DMSO was administered to the negative control section, and the same experiment was performed.\nNext, the cells were homogenized in ice-cold lysis buffer (10 mM Tris-HCl (pH 7.4), 1% (w/v) NP-40, 0.1% (w/v) deoxycholic acid, 0.1% (w/v) SDS, 150 mM NaCl, 1 mM EDTA, and 1% (w/v) protease inhibitor cocktail (Sigma-Aldrich) and allowed to stand on ice for 20 minutes. The homogenate was centrifuged at 13,000 rpm for 20 minutes (4° C.), and then the supernatant was collected as a sample for Western blotting. The protein content in the sample was measured using a DC protein assay kit (manufactured by Bio-Rad Laboratories, Inc.). A sample (protein amount of 5 µg) was separated by SDS-PAGE using 10.0 or 12.5% (w/v) polyacrylamide gel, and transferred to a PVDF membrane (PerkinElmer Life Science Co., Ltd). […]"}, "B16F10 cells [4]": {"test_system": "B16F10 cells", "experiment": "Lung metastasis of cells pre-treated in vitro, tail vein injection (Test Example 13)", "type": "in vivo, mouse", "details": "cells reacted with 3 µM in vitro; two-week non-treatment period", "protocol": "In this test example, neopetasin (NP) was previously reacted with B16F10 cells that are derived from the mouse melanoma at a concentration of 3 µM in vitro. Thereafter, the uniform numbers of living cells were injected into the tail vein of the mice, and thereafter, no treatment was performed, and the number of metastasis lesions formed in the lung after a two-week non-treatment period was counted. The protocol of the present test example is shown in FIG. 19, and the graph showing the results of the present test example and the observation photograph of the extracted lung are shown in FIG. 20. […] Here, if neopetasin (NP) were reducing the number of lung metastasis lesions as part of the proliferation inhibitory effect on tumor cells (in other words, lung metastasis is suppressed as part of the proliferation inhibitory effect), equivalent formation of metastasis lesions should be observed in both neopetasin (NP)-administered group and the control (DMSO-administered group) during the non-treatment period in which the proliferation inhibitory effect is not exerted. However, in reality, as described above, formation of a new metastatic lesion has not been confirmed even after the non-treatment period in neopetasin (NP)-administered group."}},
  "data": [
    {"smiles": "C=C(C)[C@H]1C[C@@]2(C)C(=CC1=O)CC[C@@H](OC(=O)/C(C)=C\\C)[C@@H]2C", "note": "[Neopetasin, neopetasin]", "values": [
      {"measurement": "spheroid formation", "setting": "B16F10 cells [1]", "value": "could not form spheroids"},
      {"measurement": "changes in asparagine synthetase (ASNS) and cystathionine gamma-lyase (CTH)", "setting": "A2058 cells", "value": "particularly significant changes"},
      {"measurement": "expression of molecules involved in amino acid metabolism", "setting": "A2058 cells", "value": "greatly varies"},
      {"measurement": "concentration of aspartic acid (Asp) in the sample", "setting": "B16F10 cells [2]; 3 µM, after 9 hours", "value": "strongly reduced"},
      {"measurement": "aspartic acid synthesis, remaining fraction", "setting": "B16F10 cells [2]; summary statement", "value": "⅒"},
      {"measurement": "expression of cancer-related molecules", "setting": "[3]", "value": "inhibit a wide range of cancer-related molecules"},
      {"measurement": "formation of metastasis lesions in lung", "setting": "B16F10 cells [4]", "value": "formation of metastasis lesions was not observed"}
    ]}
  ]
}
